Test results: US9187467B2, “2-phenyl benzothiazole linked imidazole compounds as potential anticancer agents and process for the preparation thereof” (Council of Scientific and Industrial Research, priority 2012, dated 2015)

What was measured:
HL-60 (TB) = test: SRB anticancer assay, leukemia; format: cell-based, human; design: Log10GI50: unit not given here
SR = test: SRB anticancer assay, leukemia; format: cell-based, human; details: Homo sapiens, 48 h
NCI-H23 = test: SRB anticancer assay, non-small lung; format: cell-based, human; details: for GI50: Homo sapiens, NCI-H23, 48 h
NCI-H322M = test: SRB anticancer assay, non-small lung; format: cell-based, human; details: Homo sapiens, 48 h
NCI-H460 = test: SRB anticancer assay, non-small lung; format: cell-based, human; details: Homo sapiens, NCI-H460, 48 h
HCT-116 = test: SRB anticancer assay, colon; format: cell-based, human; details: Homo sapiens, HCT-116, 48 h
SF-268 = test: SRB anticancer assay, CNS; format: cell-based, human; design: Log10GI50: unit not given here; details: for GI50: Homo sapiens, SF-268, 48 h
SF-295 = test: SRB anticancer assay, CNS; format: cell-based, human; design: Log10GI50: unit not given here; details: for GI50: Homo sapiens, SF-295, 48 h
SNB-75 = test: SRB anticancer assay, CNS; format: cell-based, human; design: Log10GI50: unit not given here; details: for GI50: Homo sapiens, SNB-75, 48 h
IGROV1 = test: SRB anticancer assay, ovarian; format: cell-based, human; details: Homo sapiens, IGROV-1; IGROV1, 48 h
OVCAR-3 = test: SRB anticancer assay, ovarian; format: cell-based, human; design: Log10GI50: unit not given here; details: for GI50: Homo sapiens, OVCAR-3, 48 h
OVCAR-5 = test: SRB anticancer assay, ovarian; format: cell-based, human; details: Homo sapiens, OVCAR-5, 48 h
786-0 = test: SRB anticancer assay, renal; format: cell-based, human; details: for GI50: Homo sapiens, 786-0, 48 h
A498 = test: SRB anticancer assay, renal; format: cell-based, human; design: Log10GI50: unit not given here; details: for GI50: Homo sapiens, A498, 48 h
SN12C = test: SRB anticancer assay, renal; format: cell-based, human; design: Log10GI50: unit not given here; details: for GI50: Homo sapiens, 48 h
TK-10 = test: SRB anticancer assay, renal; format: cell-based, human; details: Homo sapiens, TK-10, 48 h
UO-31 = test: SRB anticancer assay, renal; format: cell-based, human; design: Log10GI50: unit not given here
RXF 393 = test: SRB anticancer assay, renal; format: cell-based, human; design: Log10GI50: unit not given here; details: for GI50: Homo sapiens, RXF 393, 48 h
PC-3 = test: SRB anticancer assay, prostate; format: cell-based, human; design: Log10GI50: unit not given here
MCF7 = test: SRB anticancer assay, breast; format: cell-based, human; details: Homo sapiens, MCF7, 48 h
HS 578T = test: SRB anticancer assay, breast; format: cell-based, human; design: Log10GI50: unit not given here
BT-549 = test: SRB anticancer assay, breast; format: cell-based, human; details: Homo sapiens, BT-549, 48 h
T-47D = test: SRB anticancer assay, breast; format: cell-based; details: Homo sapiens, T47D, 48 h
LOX IMVI = test: SRB anticancer assay, melanoma; format: cell-based, human; design: Log10GI50: unit not given here; details: for GI50: Homo sapiens, 48 h
MALME-3M = test: SRB anticancer assay, melanoma; format: cell-based, human; design: Log10GI50: unit not given here
SK-MEL-28 = test: SRB anticancer assay, melanoma; format: cell-based, human; design: Log10GI50: unit not given here; details: for GI50: Homo sapiens, SK-MEL-28, 48 h
SK-MEL-5 = test: SRB anticancer assay, melanoma; format: cell-based, human; details: Homo sapiens, SK-MEL-5, 48 h
UACC-62 = test: SRB anticancer assay, melanoma; format: cell-based, human; details: for GI50: Homo sapiens, UACC-62, 48 h
K562 (Leukemia) cells = test: Cell cycle distribution by flow cytometry; format: cell-based
Protocol: (§1) In order to investigate the mechanism underlying the anti-proliferative effect of the compounds the cell cycle distribution was analyzed in K562 (Leukemia) and MCF-7 (Breast carcinoma) cell lines by flow cytometry. Compounds CA-4, 21a, 21d, 4c, 6d, 6e, 6f, 7d, 7h and 7j have shown 1.72%, 14%, 12%, 14%, 12%, 14%, 14%, 16%, 16% &12% in K562 cells and 49.63%, 21%, 20%, 18%, 21%, 21%, 21%, 24%, 23% and 23% in MCF-7 cell line respectively. […] Thus compound 7d was considered for further studies (FIG. 1).

[1] = test system: MCF-7 (Breast carcinoma) cells; test: Cell cycle distribution by flow cytometry (FACS); format: cell-based; details: MCF-7 cells, 2 μM, 24h
Protocol: FIG. 1 represents FACS analysis of cell cycle distribution of MCF-7 cells after treatment with compounds CA-4, 21a, 21d, 4c, 6d, 6e, 6f, 7d, 7h and 7j at 2 μM concentration for 24h and control cells are the cells treated with DMSO (0.25%).
as §1

K-562 = test: SRB anticancer assay, leukemia; format: cell-based, human; details: Homo sapiens, K562; K-562, 48 h
SK-MEL-2 = test: SRB anticancer assay, melanoma; format: cell-based, human; details: Homo sapiens, SK-MEL-2, 48 h

SMILES: COc1cc2nc(-c3ccc(-n4cncc4-c4ccc(N)cc4)cc3)sc2c(OC)c1OC [Compound 7h, 4-(1-(4-(5,6,7-Trimethoxybenzo[d]thiazol-2-yl)phenyl)-1H-imidazol-5-yl)benzenamine]
- Log10GI50 (HL-60 (TB); HL-60(TB), present compounds): −6.00
- GI50 (HL-60 (TB); Homo sapiens, HL-60, 48 h): 0.989 µM
- GI50 (SR): 1.4 µM
- GI50 (NCI-H23): 3.87 µM
- Log10GI50 (NCI-H23; NCI-H23, present compounds): −5.41 log10(M)
- GI50 (NCI-H322M): 2.07 µM
- GI50 (NCI-H460): 5.13 µM
- GI50 (HCT-116): 3.81 µM
- GI50 (SF-268): 12.3 µM
- Log10GI50 (SF-268; SF-268, present compounds): −4.91
- GI50 (SF-295): 1.53 µM
- Log10GI50 (SF-295; SF-295, present compounds): −5.82
- GI50 (SNB-75): 5.94 µM
- Log10GI50 (SNB-75; SNB-75, present compounds): −5.23
- GI50 (IGROV1): 2.63 µM
- GI50 (OVCAR-3): 2.73 µM
- Log10GI50 (OVCAR-3; OVCAR-3, present compounds): −5.56
- GI50 (OVCAR-5): 34.3 µM
- Log10GI50 (786-0; 786-0, present compounds): −5.20 log10 M
- GI50 (786-0): 6.26 µM
- Log10GI50 (A498; A498, present compounds): −5.67
- GI50 (A498): 2.13 µM
- GI50 (SN12C): 8.95 µM
- Log10GI50 (SN12C; present compounds): −5.05
- GI50 (TK-10): 4.93 µM
- GI50 (UO-31; Homo sapiens, UO-31, 48 h): 1.55 µM
- Log10GI50 (UO-31; UO-31, present compounds): −5.81
- GI50 (RXF 393): 4.41 µM
- Log10GI50 (RXF 393; RXF 393, present compounds): −5.36
- GI50 (PC-3; Homo sapiens, PC-3, 48 h): 3.02 µM
- Log10GI50 (PC-3; PC-3, present compounds): −5.52
- GI50 (MCF7): 3.02 µM
- Log10GI50 (HS 578T; present compounds): −5.27
- GI50 (BT-549): 1.59 µM
- GI50 (T-47D): 1.82 µM
- GI50 (LOX IMVI): 3.65 µM
- Log10GI50 (LOX IMVI; present compounds): −5.44
- GI50 (MALME-3M; Homo sapiens, Malme-3M, 48 h): 0.71 µM
- Log10GI50 (MALME-3M; MALME-3M, present compounds): −6.15
- GI50 (SK-MEL-28): > 100 µM
- Log10GI50 (SK-MEL-28; SK-MEL-28, present compounds): >−4.0
- GI50 (SK-MEL-5): 2.74 µM
- GI50 (UACC-62): 5.45 µM
- Log10GI50 (UACC-62; UACC-62, present compounds): −5.26 log10 M
- cells in G2/M phase (K562 (Leukemia) cells): 16%
- cells in G2/M phase [1]: 23%

SMILES: COc1cc(OC)cc(-c2cncn2-c2ccc(-c3nc4cc(OC)cc(OC)c4s3)cc2)c1 [Compound 6d, 2-(4-(5-(3,5-Dimethoxyphenyl)-1H-imidazol-1-yl)phenyl)-5,7-dimethoxybenzo[d]thiazole]
- GI50 (K-562): 3.22 µM
- GI50 (SR): 3.3 µM
- GI50 (NCI-H23): 10.3 µM
- GI50 (NCI-H322M): > 100 µM
- GI50 (NCI-H460): 4.41 µM
- GI50 (HCT-116): 4.93 µM
- GI50 (SF-268): 11.3 µM
- GI50 (SF-295): 2.4 µM
- GI50 (SNB-75): 3.28 µM
- GI50 (IGROV1): 5.07 µM
- GI50 (OVCAR-3): 2.87 µM
- GI50 (OVCAR-5): > 100 µM
- GI50 (786-0): 7.6 µM
- GI50 (A498): 3.15 µM
- GI50 (SN12C): > 100 µM
- GI50 (TK-10): 16.8 µM
- GI50 (RXF 393): 6.58 µM
- GI50 (MCF7): 3.82 µM
- GI50 (HS 578T; Homo sapiens, 48 h): 3.09 µM
- GI50 (BT-549): 5.77 µM
- GI50 (T-47D): 3.17 µM
- GI50 (LOX IMVI): 5.48 µM
- GI50 (SK-MEL-2): 9.69 µM
- GI50 (SK-MEL-28): > 100 µM
- GI50 (SK-MEL-5): 3.29 µM
- GI50 (UACC-62): 4.75 µM
- cells in G2/M phase (K562 (Leukemia) cells): 12%
- cells in G2/M phase [1]: 21%
